Assay results published in US9145376B2, “Quinazolinone inhibitors of dynein” (The Rockefeller University, priority 2011, dated 2015).

Legend:
[1] = test system: mitotic spindle of Shh-EGFP (NIH-3T3) cells (cytoplasmic dynein 1); experiment: Imaging of mitotic spindle assembly; type: cell-based; settings: 50 μM, 60 minutes, MG132-arrested cells
Description: In addition to trafficking macromolecules out of the primary cilium, cytoplasmic dynein complexes have other cellular functions. For example, cytoplasmic dynein 1 acts in concert with dynactin and the nuclear protein NuMA to crosslink and focus the minus ends of microtubules within the mitotic spindle. These actions create the canonical fusiform shape and localize γ-tubulin-containing, microtubule-nucleating complexes to the spindle poles. Cytoplasmic dynein 1 inhibition by blocking antibodies or dominant negative constructs disrupts mitotic spindle assembly, resulting in splayed microtubule ends and reduced γ-tubulin recruitment. To determine whether ciliobrevins can recapitulate these phenotypes, we treated a metaphase-enriched population of NIH-3T3 cells with 50 μM of either example 31 or […] for one hour and examined their mitotic structures by confocal immunofluorescence microscopy.
Shh-EGFP cells were cultured until they achieved approximately 70% confluency and then split 1:5 into 24-well plates containing, poly-D-lysine-coated 12-mm glass coverslips in DMEM containing 10% calf serum, 100 U/mL penicillin, and 0.1 mg/mL streptomycin. […]

[2] = test system: ciliary IFT88 in Shh-EGFP cells (cytoplasmic dynein 2-dependent retrograde transport); experiment: Quantitative assessment of IFT88 trafficking; type: cell-based; settings: 50 μM, one hour, compared to DMSO or compound 16
Description: As a microtubule-based compartment, the cilium utilizes specific motor proteins to move macromolecules along its axoneme. Intraflagellar transport (IFT) of cargo can be resolved into anterograde trafficking, which requires the plus end-directed kinesin-2 motor and the IFTB multisubunit complex, and retrograde trafficking, which utilizes the minus end-directed cytoplasmic dynein 2 motor and the IFTA complex. The genetic disruption of individual kinesin-2, cytoplasmic dynein 2, or IFT complex subunits has been previously found to induce ciliary defects and perturb Hh signaling. […] To confirm that ciliobrevins target cilia trafficking in general rather than a Hh pathway-specific process, we examined the effect of ciliobrevins on the subcellular localization of IFTB component IFT88, which requires cytoplasmic dynein 2-dependent retrograde transport for its return to the ciliary basal body.
Shh-EGFP cells were seeded into 24-well plates containing poly-D-lysine-coated 12-mm glass coverslips at a density of 30,000 cells/well and cultured for 24 hours in DMEM containing 10% calf serum, 100 U/mL penicillin, and 0.1 mg/mL streptomycin. […] Ciliary IFT levels were quantified essentially as described for Gli2 though no background was subtracted. At least 25 cilia were analyzed to determine the average ciliary IFT88 level for each experimental condition.

Row | SMILES | mitotic spindle morphology (γ-tubulin-positive pole focusing) [1] | IFT88 levels at the distal tip of primary cilia [2]
1 | N#C/C(C(=O)c1ccccc1)=C1\NC(=O)c2ccccc2N1 [Example 16, 3-oxo-2-(4-oxo-3,4-dihydroquinazolin-2(1H)-ylidene)-3-phenylpropanenitrile] | normal spindle morphologies | 
2 | N#C/C(C(=O)c1ccc(Cl)cc1Cl)=C1\NC(=O)c2ccc(Cl)cc2N1 [Example 31, 2-(7-chloro-4-oxo-3,4-dihydroquinazolin-2(1H)-ylidene)-3-(2,4-dichlorophenyl)-3-oxo-propanenitrile] | failed to achieve mitotic spindles with focused γ-tubulin-positive poles | significant increase
